Data published in US20190239511A1, “Synergistic Combinations Of Monochloramine And Peroxide Compound, And Methods Of Using The Same For Microbial Control” (Buckman Laboratories International, Inc., priority 2018, published 2019).

System: bacteria in 35 wt % corn slurry solution
Experiment: Bacterial growth control in corn slurry, bacteria count and reduction (Example 2, Table 1 and FIG. 5)
Assay type: cell-based
Experimental: The effect of combined amounts of hydrogen peroxide and monochloramine at other tested addition amounts on bacterial growth control and their addition timing was further studied using laboratory experiments. For this additional study, laboratory experiments were performed using hydrogen peroxide at dosages of 100 ppm and 200 ppm, and monochloramine (“Oxamine”) at dosages of 25 ppm, 50 ppm, 75 ppm, and 100 ppm. The time between peroxide and monochloramine addition was up to 10 minutes (i.e., 0-10 minutes). All experiments were carried out with 35 wt % corn slurry solution.

Row | SMILES | % Reduction (25 ppm Oxamine alone) [%] | Bacteria Count (25 ppm Oxamine alone) | % Reduction (50 ppm Oxamine alone) [%] | Bacteria Count (50 ppm Oxamine alone) | % Reduction (75 ppm Oxamine alone) [%] | Bacteria Count (75 ppm Oxamine alone) | % Reduction (100 ppm Oxamine alone) [%] | Bacteria Count (100 ppm Oxamine alone) | % Reduction (100 ppm H2O2 alone) [%] | Bacteria Count (100 ppm H2O2 alone) | % Reduction (200 ppm H2O2 alone) [%] | Bacteria Count (200 ppm H2O2 alone)
1 | NCl [Oxamine, monochloramine] | 98.99 | 5.E+04 | 99.93 | 4.E+03 | 99.97 | 1.E+03 | 99.98 | 9.E+02 | – | – | – | –
2 | OO [H2O2, hydrogen peroxide] | – | – | – | – | – | – | – | – | 0.00 | 5.E+06 | 18.37 | 4.E+06
